Six compounds from BindingDB's records for doi:10.1016/j.bmcl.2006.09.018 (Gsk, 2006) can be followed below.

Test [1] deals with Serine/threonine-protein kinase PLK1 (Homo sapiens, UniProt P53350). Kind of test: Scintillation Proximity Assay (SPA). To be noted: pH 7.2; 22 °C. On the procedure:
The compound inhibitory activity was determined by incubation with purified PLK1 and biotinylated peptide substrate in the presence ATP/[gamma-33P]ATP. After incubation, the phosphorylated substrate was separated from nonincorporated radioactive ATP using SPA beads. Incorporated radioactivity was measured using Packard TopCount.
A general note: SPA uses beads or plates that emit light when radiolabelled molecules are held near them.

In test [2] the target is T1, Inhibitor of nuclear factor kappa-B kinase subunit beta (Homo sapiens, UniProt O14920).
T1 sequence (O14920 whole entry): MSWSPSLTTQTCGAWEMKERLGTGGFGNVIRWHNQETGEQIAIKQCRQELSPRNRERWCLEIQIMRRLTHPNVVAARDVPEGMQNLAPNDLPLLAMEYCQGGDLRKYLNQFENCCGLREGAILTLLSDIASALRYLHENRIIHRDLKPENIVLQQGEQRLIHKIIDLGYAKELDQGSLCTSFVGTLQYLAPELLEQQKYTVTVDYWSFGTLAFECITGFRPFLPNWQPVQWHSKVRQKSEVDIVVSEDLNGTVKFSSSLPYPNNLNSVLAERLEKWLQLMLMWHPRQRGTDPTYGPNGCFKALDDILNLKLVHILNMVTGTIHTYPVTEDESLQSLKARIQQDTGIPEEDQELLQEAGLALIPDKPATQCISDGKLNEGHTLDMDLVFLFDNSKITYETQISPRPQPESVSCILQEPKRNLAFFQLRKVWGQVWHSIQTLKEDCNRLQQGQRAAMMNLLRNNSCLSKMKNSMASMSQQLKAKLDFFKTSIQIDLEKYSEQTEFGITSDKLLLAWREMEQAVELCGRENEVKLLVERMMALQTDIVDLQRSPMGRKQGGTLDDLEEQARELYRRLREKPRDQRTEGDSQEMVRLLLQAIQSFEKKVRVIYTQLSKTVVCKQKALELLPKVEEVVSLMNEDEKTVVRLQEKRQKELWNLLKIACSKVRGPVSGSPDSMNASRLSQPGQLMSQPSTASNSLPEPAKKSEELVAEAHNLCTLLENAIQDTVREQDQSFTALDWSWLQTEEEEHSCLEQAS
Kind of test: IKK Kinase Inhibition Assay. To be noted: pH 7.4; 22 °C.
Protocol: (§1) IKK kinase activity was assessed using a time-resolved fluorescence resonance energy transfer (TR-FRET) assay. The reaction was initiated by the addition of GST-IKBalpha substrate/ATP to the reaction buffer containing IKK kinase and test compounds. After incubation, detection reagent containing antiphosphoserine IKBalpha monoclonal antibody labelled with europium chelate, and an APC-labelled anti-GST antibody was added.

The target of test [3] is T2, Inhibitor of nuclear factor kappa-B kinase subunit epsilon (Homo sapiens, UniProt Q14164).
T2 sequence (Q14164 whole entry): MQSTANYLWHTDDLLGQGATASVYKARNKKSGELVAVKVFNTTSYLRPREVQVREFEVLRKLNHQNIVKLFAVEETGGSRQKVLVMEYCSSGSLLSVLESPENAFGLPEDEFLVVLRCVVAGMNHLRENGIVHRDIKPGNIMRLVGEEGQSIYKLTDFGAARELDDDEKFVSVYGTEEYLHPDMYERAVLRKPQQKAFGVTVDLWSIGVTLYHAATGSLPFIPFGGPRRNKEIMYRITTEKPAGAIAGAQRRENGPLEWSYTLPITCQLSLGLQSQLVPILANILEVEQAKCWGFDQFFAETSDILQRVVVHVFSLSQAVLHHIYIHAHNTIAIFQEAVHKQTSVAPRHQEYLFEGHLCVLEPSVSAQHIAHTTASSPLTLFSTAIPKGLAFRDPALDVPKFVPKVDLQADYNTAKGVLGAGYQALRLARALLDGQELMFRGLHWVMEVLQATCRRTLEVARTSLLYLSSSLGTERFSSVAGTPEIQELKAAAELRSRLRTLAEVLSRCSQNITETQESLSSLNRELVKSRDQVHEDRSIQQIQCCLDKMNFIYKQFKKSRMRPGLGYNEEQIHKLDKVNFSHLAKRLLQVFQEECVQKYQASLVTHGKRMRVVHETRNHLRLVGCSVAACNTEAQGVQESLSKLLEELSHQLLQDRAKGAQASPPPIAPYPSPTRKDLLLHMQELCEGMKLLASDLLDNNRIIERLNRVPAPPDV
Kind of test: IKK Kinase Inhibition Assay. To be noted: pH 7.4; 22 °C.
Protocol: as §1

Sequence of Serine/threonine-protein kinase PLK1 (P53350 whole entry): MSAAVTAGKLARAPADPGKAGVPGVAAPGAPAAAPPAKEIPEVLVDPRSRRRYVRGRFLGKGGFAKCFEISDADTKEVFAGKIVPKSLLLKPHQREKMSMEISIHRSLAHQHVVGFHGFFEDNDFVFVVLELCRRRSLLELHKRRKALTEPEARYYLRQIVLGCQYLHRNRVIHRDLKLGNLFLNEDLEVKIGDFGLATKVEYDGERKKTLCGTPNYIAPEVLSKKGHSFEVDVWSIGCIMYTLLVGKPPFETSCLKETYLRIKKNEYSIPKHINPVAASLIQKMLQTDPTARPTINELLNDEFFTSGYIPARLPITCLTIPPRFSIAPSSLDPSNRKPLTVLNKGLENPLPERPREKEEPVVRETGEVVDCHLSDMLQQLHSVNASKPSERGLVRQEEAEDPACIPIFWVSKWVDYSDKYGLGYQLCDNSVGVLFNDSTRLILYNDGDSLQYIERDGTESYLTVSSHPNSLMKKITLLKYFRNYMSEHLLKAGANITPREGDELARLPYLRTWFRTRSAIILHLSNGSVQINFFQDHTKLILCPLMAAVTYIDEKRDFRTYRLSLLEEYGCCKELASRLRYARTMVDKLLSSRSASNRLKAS

As a reminder, the IC50 is the concentration that inhibits the measured activity by half. A lower IC50 goes with higher potency. Consider `COc1cc2ncn(-c3cc(OCC4CCCO4)c(C#N)s3)c2cc1OC` (stereo not given) [5-(5,6-dimethoxy-1H-1,3-benzodiazol-1-yl)-3-(oxolan-2-ylmethoxy)thiophene-2-carbonitrile], for which the values for the IC50 in test [1] and in test [2] were greater than 10 µM and greater than 15.8 µM, respectively.

`COc1cc2ncn(-c3cc(OCC4CCCO4)c(C(N)=O)s3)c2cc1OC` (stereo not given) [5-(5,6-dimethoxy-1H-1,3-benzodiazol-1-yl)-3-(oxolan-2-ylmethoxy)thiophene-2-carboxamide]: the IC50 in test [2] and in test [3] was greater than 15.8 µM each time.

In test [2], `COc1cc2ncn(-c3cc(OCc4ccccc4S(C)(=O)=O)c(C#N)s3)c2cc1OC` [5-(5,6-dimethoxy-1H-1,3-benzodiazol-1-yl)-3-[(2-methanesulfonylphenyl)methoxy]thiophene-2-carbonitrile] returned an IC50 greater than 15.8 µM.

On to `COc1cc2ncn(-c3cc(OCc4ccc(S(C)(=O)=O)cc4)c(C#N)s3)c2cc1OC` [5-(5,6-dimethoxy-1H-1,3-benzodiazol-1-yl)-3-[(4-methanesulfonylphenyl)methoxy]thiophene-2-carbonitrile], for which the IC50 in test [2] was greater than 15.8 µM.

As to `Cc1ccc(COc2cc(-n3cnc4ccccc43)sc2C(N)=O)cc1` [BMCL191018 Compound 9], the IC50 in test [1] amounted to 0.126 µM; in test [3], 3.98 µM.

Consider `COc1cc2ncn(-c3cc(OCc4ccc(S(C)(=O)=O)cc4)c(C(N)=O)s3)c2cc1OC` [BMCL191018 Compound 39], for which the IC50 in test [2] and in test [3] was greater than 15.8 µM in each case.
